Among the data in patent US12091411B2, “IRAK degraders and uses thereof” (Kymera Therapeutics, Inc., priority 2022, dated 2024) are DC50 values, retold here.

The target in this assay is T1, IRAK4 (Homo sapiens, UniProt Q9NWZ3).
T1 construct: Degradation of IRAK4 in OCI-LY10 was quantitatively measured using Meso Scale Discovery technology; endogenous in cells; host or cells: OCI-LY10
T1 sequence (Q9NWZ3 1-460): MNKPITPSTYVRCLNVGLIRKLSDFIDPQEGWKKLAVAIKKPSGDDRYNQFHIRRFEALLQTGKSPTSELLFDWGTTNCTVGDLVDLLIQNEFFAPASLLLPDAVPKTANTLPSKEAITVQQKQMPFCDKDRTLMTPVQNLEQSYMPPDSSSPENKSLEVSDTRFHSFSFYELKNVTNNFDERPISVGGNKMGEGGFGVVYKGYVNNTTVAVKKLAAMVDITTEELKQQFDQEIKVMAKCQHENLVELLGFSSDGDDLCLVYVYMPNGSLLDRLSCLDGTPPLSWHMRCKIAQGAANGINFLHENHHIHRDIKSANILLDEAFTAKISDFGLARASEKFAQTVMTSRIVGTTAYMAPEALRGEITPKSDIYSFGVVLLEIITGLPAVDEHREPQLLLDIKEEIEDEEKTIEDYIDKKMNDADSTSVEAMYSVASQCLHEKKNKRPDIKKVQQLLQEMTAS
Kind of assay: IRAK4 MSD Degradation in OCI-LY10. The conditions noted are these: OCI-LY10 cells, MSD. The assay is classed as cell-based. The essentials:
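DC50, from a three-parameter logistic fit and reported as letter bins A (<0.01 μM), B, C, D (>0.2 μM or not tested), reflects IRAK4 loss measured by MSD electrochemiluminescence in OCI-LY10 lysates. Treatment: 8 doses, 1:3 steps, top 1 to 10 μM, 4 to 24 h, 37 °C.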

Where [1] appears, read: 4 hrs incubation, read-out: IRAK4 degradation in OCI-LY10 at 4 hrs: DC50.
[2] abbreviates: 24 hrs incubation, read-out: IRAK4 degradation in OCI-LY10 at 24 hrs: DC50.

Molecules are shown by their SMILES. Where two headings read alike, the source gives them in different places.

For `Cn1c(=O)n(C2CCC(=O)NC2=O)c2cccc(-c3cc(CN4CCn5cc(-n6cc(NC(=O)c7cnn8cccnc78)c(C(F)F)n6)cc5C4)ncn3)c21` (centres unmarked) [I-415], the DC50 under setting [1] is above 200 nM and the DC50 under setting [2] is above 200 nM.
`Cn1c(=O)n(C2CCC(=O)NC2=O)c2cccc(N3CCC(N4CCn5cc(-n6cc(NC(=O)c7cnn8cccnc78)c(C(F)F)n6)cc5C4)CC3)c21` (centres unmarked) [I-416]: the 50% degradation concentration (DC50) under setting [1] is above 200 nM and the DC50 under setting [2] was above 200 nM.
On to `Cn1c(=O)n(C2CCC(=O)NC2=O)c2cccc(-c3ccc(N4CCc5cc(-n6cc(NC(=O)c7cnn8cccnc78)c(C(F)F)n6)ccc5C4)nc3)c21` (centres unmarked) [I-417], for which the DC50 under setting [1] is above 200 nM and the half-maximal degradation concentration (DC50) under setting [2] was above 200 nM.
`Cn1c(=O)n(C2CCC(=O)NC2=O)c2cccc(C#CCN3CCN(C[C@H]4CC[C@H](n5cc(NC(=O)c6cnn7ccc(N8CC[C@]9(CCOC9)C8)nc67)c(C(F)F)n5)CC4)CC3)c21` (some centres unmarked) [I-418]: the DC50 is 10 to 100 nM under setting [1] and above 200 nM under setting [2].
As to `Cn1c(=O)n(C2CCC(=O)NC2=O)c2cccc(C#CCN3CCN(C[C@H]4CC[C@H](n5cc(NC(=O)c6cnn7ccc(N8CC[C@@]9(CCOC9)C8)nc67)c(C(F)F)n5)CC4)CC3)c21` (some centres unmarked) [I-419], the DC50 by setting is: under setting [1], 10 to 100 nM; under setting [2], above 200 nM.
In the case of `Cn1c(=O)n(C2CCC(=O)NC2=O)c2cccc(C#CCOC3CCN([C@H]4CC[C@@H](n5cc(NC(=O)c6cnn7ccc(N8C[C@H]9C[C@@H]8CO9)nc67)c(C(F)F)n5)CC4)CC3)c21` (some centres unmarked) [I-420], the 50% degradation concentration (DC50) under setting [1] is above 200 nM and the 50% degradation concentration (DC50) under setting [2] is above 200 nM.
As to `Cn1c(=O)n(C2CCC(=O)NC2=O)c2cccc(C#CCN3CCN([C@H]4CC[C@@H](n5cc(NC(=O)c6cnn7ccc(N8C[C@H]9C[C@@H]8CO9)nc67)c(C(F)F)n5)CC4)CC3)c21` (some centres unmarked) [I-421], the DC50 was 10 to 100 nM under setting [1] and above 200 nM under setting [2].
Regarding `Cn1c(=O)n(C2CCC(=O)NC2=O)c2cccc(N3CCC(N4CCN([C@H]5CC[C@@H](n6cc(NC(=O)c7cnn8ccc(N9C[C@H]%10C[C@@H]9CO%10)nc78)c(C(F)F)n6)CC5)CC4)CC3)c21` (some centres unmarked) [I-422], the half-maximal degradation concentration (DC50) runs as follows: under setting [1], above 200 nM; under setting [2], above 200 nM.
In the case of `Cn1c(=O)n(C2CCC(=O)NC2=O)c2cccc(C3CCN(C4CCN(C5CCC(n6cc(NC(=O)c7cnn8ccc(N9C[C@H]%10C[C@@H]9CO%10)nc78)c(C(F)F)n6)CC5)CC4)CC3)c21` (some centres unmarked) [I-423], the DC50 is above 200 nM under setting [1] and above 200 nM under setting [2].
Consider `Cn1c(=O)n(C2CCC(=O)NC2=O)c2cccc(N3CCN([C@H]4CC[C@@H](n5cc(NC(=O)c6cnn7ccc(N8C[C@H]9C[C@@H]8CO9)nc67)c(C(F)F)n5)CC4)CC3)c21` (some centres unmarked) [I-424], for which the DC50 by setting is: under setting [1], above 200 nM; under setting [2], above 200 nM.
Consider `Cn1c(=O)n(C2CCC(=O)NC2=O)c2cccc(C#CCN3CCN(C[C@H]4CC[C@H](n5cc(NC(=O)c6cnn7ccc(C8CCOC8)nc67)c(C(F)F)n5)CC4)CC3)c21` (some centres unmarked) [I-426], for which the DC50 runs as follows: under setting [1], 10 to 100 nM; under setting [2], above 200 nM.
For `C[C@H]1CN(c2ccn3ncc(C(=O)Nc4cn([C@H]5CC[C@H](CN(C)C6CCN(c7cccc8c7n(C)c(=O)n8C7CCC(=O)NC7=O)CC6)CC5)nc4C(F)F)c3n2)CCO1` (some centres unmarked) [I-427] the same measures were above 200 nM and below 10 nM.
Take `C[C@@H]1CN(c2ccn3ncc(C(=O)Nc4cn([C@H]5CC[C@H](CN(C)C6CCN(c7cccc8c7n(C)c(=O)n8C7CCC(=O)NC7=O)CC6)CC5)nc4C(F)F)c3n2)CCO1` (some centres unmarked) [I-428]: the DC50 is above 200 nM under setting [1] and below 10 nM under setting [2].
For `C[C@@H]1CN(c2ccn3ncc(C(=O)Nc4cn([C@H]5CC[C@H](CN6CCN(CC#Cc7cccc8c7n(C)c(=O)n8C7CCC(=O)NC7=O)CC6)CC5)nc4C(F)F)c3n2)C[C@H](C)O1` (some centres unmarked) [I-429] the same measures were above 200 nM and above 200 nM.
Regarding `C[C@H]1CN(c2ccn3ncc(C(=O)Nc4cn([C@H]5CC[C@H](CN6CCN(CC#Cc7cccc8c7n(C)c(=O)n8C7CCC(=O)NC7=O)CC6)CC5)nc4C(F)F)c3n2)C[C@H](C)O1` (some centres unmarked) [I-430], the DC50 is above 200 nM under setting [1] and below 10 nM under setting [2].
The corresponding values for `C[C@@H]1CN(c2ccn3ncc(C(=O)Nc4cn([C@H]5CC[C@H](CN6CCN(CC#Cc7cccc8c7n(C)c(=O)n8C7CCC(=O)NC7=O)CC6)CC5)nc4C(F)F)c3n2)C[C@@H](C)O1` (some centres unmarked) [I-431] are above 200 nM and below 10 nM.
With `[2H]C([2H])([2H])Oc1ccc2c(c1C1CCN(C[C@H]3CC[C@H](n4cc5cc(NC(=O)c6cccc(C(F)(F)F)n6)ncc5n4)CC3)CC1)n(C([2H])([2H])[2H])c(=O)n2C1CCC(=O)NC1=O` (some centres unmarked) [I-432], the DC50 by setting is: under setting [1], above 200 nM; under setting [2], below 10 nM.
The corresponding values for `Cn1c(=O)n(C2CCC(=O)NC2=O)c2cccc(C#CCOC3CCN(C[C@H]4CC[C@H](n5cc(NC(=O)c6cnn7ccc(N8CCC(F)(F)CC8)nc67)c(C(F)F)n5)CC4)CC3)c21` (some centres unmarked) [I-433] are above 200 nM and below 10 nM.
With `Cn1c(=O)n(C2CCC(=O)NC2=O)c2cccc(C#CCN3CCN(C[C@H]4CC[C@H](n5cc(NC(=O)c6cnn7ccc(N8CCC(F)(F)CC8)nc67)c(C(F)F)n5)CC4)CC3)c21` (some centres unmarked) [I-434], the DC50 under setting [1] was above 200 nM and the DC50 under setting [2] was below 10 nM.
For `O=C1CCN(c2cccc(C#CCN3CCN(C[C@H]4CC[C@@H](n5cc(NC(=O)c6cnn7ccc(N8CC9CCC(C8)O9)nc67)c(C(F)F)n5)CC4)CC3)c2)C(=O)N1` [I-435] the same measures were above 200 nM and above 200 nM.
With `O=C1CCN(c2cccc(C#CCN3CCN(C[C@H]4CC[C@@H](n5cc(NC(=O)c6cnn7ccc(N8CC9CC(C8)O9)nc67)c(C(F)F)n5)CC4)CC3)c2)C(=O)N1` [I-436], the DC50 reads like this: under setting [1], above 200 nM; under setting [2], above 200 nM.
Consider `O=C1CCC(c2ccc(C#CCN3CCN(C[C@H]4CC[C@H](n5cc(NC(=O)c6cnn7ccc(N8C[C@H]9C[C@@H]8CO9)nc67)c(C(F)F)n5)CC4)CC3)cc2)C(=O)N1` (some centres unmarked) [I-437], for which the DC50 was 10 to 100 nM under setting [1] and above 200 nM under setting [2].
On to `COc1cc2nn([C@H]3CC[C@H](CN4CCC(c5cccc6c5n(C)c(=O)n6C5CCC(=O)NC5=O)CC4)CC3)cc2cc1NC(=O)c1cncc(F)c1` (some centres unmarked) [I-439], for which the 50% degradation concentration (DC50) runs as follows: under setting [1], below 10 nM; under setting [2], above 200 nM.
Turning to `C[C@@H]1CN(c2ccn3ncc(C(=O)Nc4cn([C@H]5CC[C@H](CN(C)C6CCN(c7cccc8c7n(C)c(=O)n8C7CCC(=O)NC7=O)CC6)CC5)nc4C(F)F)c3n2)C[C@@H](C)O1` (some centres unmarked) [I-440], the DC50 under setting [1] is below 10 nM and the DC50 under setting [2] is below 10 nM.
Regarding `C[C@H]1CN(c2ccn3ncc(C(=O)Nc4cn([C@H]5CC[C@H](CN(C)C6CCN(c7cccc8c7n(C)c(=O)n8C7CCC(=O)NC7=O)CC6)CC5)nc4C(F)F)c3n2)C[C@H](C)O1` (some centres unmarked) [I-441], the DC50 is, setting by setting: under setting [1], below 10 nM; under setting [2], below 10 nM.
`C[C@@H]1CN(c2ccn3ncc(C(=O)Nc4cn([C@H]5CC[C@H](CN(C)C6CCN(c7cccc8c7n(C)c(=O)n8C7CCC(=O)NC7=O)CC6)CC5)nc4C(F)F)c3n2)C[C@H](C)O1` (some centres unmarked) [I-442]: the DC50 is 10 to 100 nM under setting [1] and below 10 nM under setting [2].
For the compound `Cn1c(=O)n(C2CCC(=O)NC2=O)c2cccc(C3CCN(C[C@H]4CC[C@H](n5cc6cc(NC(=O)c7cccc(C(F)(F)F)n7)c(C(F)F)cc6n5)CC4)CC3(F)F)c21` (some centres unmarked) [I-443], the DC50 was above 200 nM under setting [1] and above 200 nM under setting [2].
Regarding `Cn1c(=O)n(C2CCC(=O)NC2=O)c2cccc(C3CCN(C[C@H]4CC[C@H](n5cc6cc(NC(=O)c7cccc(C(F)(F)F)n7)c(C#N)cc6n5)CC4)CC3(F)F)c21` (some centres unmarked) [I-444], the DC50 was above 200 nM under setting [1] and above 200 nM under setting [2].
As to `Cn1c(=O)n(C2CCC(=O)NC2=O)c2cccc(C3CCN(C[C@H]4CC[C@H](n5cc6cc(NC(=O)c7cccc(C(F)(F)F)n7)ccc6n5)CC4)CC3(F)F)c21` (some centres unmarked) [I-445], the DC50 is, setting by setting: under setting [1], above 200 nM; under setting [2], above 200 nM.
With `COc1ccc2c(c1C1CCN(C[C@H]3CC[C@H](n4cc5cc(NC(=O)c6cccc(C(F)(F)F)n6)ccc5n4)CC3)CC1(F)F)n(C)c(=O)n2C1CCC(=O)NC1=O` (some centres unmarked) [I-446], the 50% degradation concentration (DC50) was above 200 nM under setting [1] and above 200 nM under setting [2].
As to `Cn1c(=O)n(C2CCC(=O)NC2=O)c2cccc(C3CCN(C[C@H]4CC[C@H](n5cc6cc(NC(=O)c7cccc(C(F)(F)F)n7)ncc6n5)CC4)CC3(F)F)c21` (some centres unmarked) [I-447], the DC50 reads like this: under setting [1], above 200 nM; under setting [2], below 10 nM.
For `COc1ccc2c(c1C1CCN(C[C@H]3CC[C@H](n4cc5cc(NC(=O)c6cccc(C(F)(F)F)n6)ncc5n4)CC3)CC1(F)F)n(C)c(=O)n2C1CCC(=O)NC1=O` (some centres unmarked) [I-448], the DC50 under setting [1] was above 200 nM and the DC50 under setting [2] was above 200 nM.
`Cn1c(=O)n(C2CCC(=O)NC2=O)c2cccc(C3CCN(C[C@H]4CC[C@H](n5cc6cc(NC(=O)c7cccc(C(F)(F)F)n7)c(F)cc6n5)CC4)CC3(F)F)c21` (some centres unmarked) [I-449]: the 50% degradation concentration (DC50) by setting is: under setting [1], above 200 nM; under setting [2], above 200 nM.
For the compound `Cn1c(=O)n(C2CCC(=O)NC2=O)c2cccc(C3CCN(C[C@H]4CC[C@H](n5cc6cc(NC(=O)c7cccc(C(F)(F)F)n7)c(Cl)cc6n5)CC4)CC3(F)F)c21` (some centres unmarked) [I-450], the DC50 under setting [1] was above 200 nM and the DC50 under setting [2] was above 200 nM.
